Laboratory results as given in the supplement of paper PMC4862054.

What was measured:
Test in all cases: normalised response (% of control), CellTiter-Glo; higher = more viable cells (100 = DMSO, 0 = benzethonium chloride kill control)
Settings in all cases: incubation time: 72 h
CAL-148 = test system: CAL-148
Method in brief: (§1)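 Breast cancer cell lines (20 µl suspension) were seeded into 384-well plates holding compound at 5 concentrations in 10-fold steps over a compound-specific 10,000-fold range, then incubated 72 h. CellTox Green fluorescence (485/520 nm) was read first, then CellTiter-Glo luminescence after 10 min at room temperature. Each plate was normalised to 0.1 % DMSO (100) and a positive kill control (0). Each value is the normalised signal at a single concentration of the series.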

MCF-10A = test system: MCF-10A
Method in brief: as §1

HCC1599 = test system: HCC1599
Method in brief: as §1

DU-4475 = test system: DU-4475
Method in brief: as §1

Hs578T = test system: Hs578T
Method in brief: as §1

SK-BR-3 = test system: SK-BR-3
Method in brief: as §1

MFM-223 = test system: MFM-223
Method in brief: as §1

MDA-MB-436 = test system: MDA-MB-436
Method in brief: as §1

BT-474 = test system: BT-474
Method in brief: as §1

HCC1143 = test system: HCC1143
Method in brief: as §1

BT-549 = test system: BT-549
Method in brief: as §1

CAL-120 = test system: CAL-120
Method in brief: as §1

MDA-MB-231 = test system: MDA-MB-231
Method in brief: as §1

CAL-51 = test system: CAL-51
Method in brief: as §1

HDQ-P1 = test system: HDQ-P1
Method in brief: as §1

CAL-85-1 = test system: CAL-85-1
Method in brief: as §1

MDA-MB-453 = test system: MDA-MB-453
Method in brief: as §1

MDA-MB-468 = test system: MDA-MB-468
Method in brief: as §1

HCC1937 = test system: HCC1937
Method in brief: as §1

| Compound | normalised response (CAL-148) [%] | normalised response (MCF-10A) [%] | normalised response (HCC1599) [%] | normalised response (DU-4475) [%] | normalised response (Hs578T) [%] | normalised response (SK-BR-3) [%] | normalised response (MFM-223) [%] | normalised response (MDA-MB-436) [%] | normalised response (BT-474) [%] | normalised response (HCC1143) [%] | normalised response (BT-549) [%] | normalised response (CAL-120) [%] | normalised response (MDA-MB-231) [%] | normalised response (CAL-51) [%] | normalised response (HDQ-P1) [%] | normalised response (CAL-85-1) [%] | normalised response (MDA-MB-453) [%] | normalised response (MDA-MB-468) [%] | normalised response (HCC1937) [%] |
| --- | --- | --- | --- | --- | --- | --- | --- | --- | --- | --- | --- | --- | --- | --- | --- | --- | --- | --- | --- |
| COc1cc2c(NC3CCN(C(C)C)CC3)nc(N3CCC(F)(F)CC3)nc2cc1OCCCN1CCCC1 [UNC0642] (1 nM) | 87.2 | 102 | 88.9 | 97.5 | 99.3 | 93.1 | 91.2 | 89.2 | 92.3 | 95 | 97.9 | 94.2 | 96 | 103 | 92.7 | 93.2 | 105 | 95.9 | 94.5 |
| CNC(=O)c1ccc(N2C(=S)N(c3ccc(C#N)c(C(F)(F)F)c3)C(=O)C23CCC3)cc1F [RD162] (1 nM) | 104 | 102 | 107 | 102 | 102 | 107 | 99.9 | 101 | 97 | 93.7 | 93.8 | 98 | 106 | 108 | 95.9 | 96.2 | 104 | 106 | 93.8 |
| CNC(=O)c1cccc(-c2ccc3c(N4CCOC[C@@H]4C)nc(N4CCOC[C@@H]4C)nc3n2)c1 [AZD2014] (10 nM) | 106 | 111 | 115 | 104 | 104 | 99 | 106 | 98.5 | 99.5 | 99.8 | 96.8 | 93.5 | 97.7 | 105 | 98.8 | 97.6 | 101 | 104 | 101 |
| CCc1c2c(nc3ccc(OC(=O)N4CCC(N5CCCCC5)CC4)cc13)-c1cc3c(c(=O)n1C2)COC(=O)[C@]3(O)CC [Irinotecan] (10 nM) | 93.7 | 105 | 97.5 | 106 | 97.7 | 109 | 98.7 | 92.7 | 100 | 99.7 | 90.8 | 94.2 | 97.7 | 114 | 98.4 | 100 | 107 | 105 | 94.8 |
| CNC(=O)c1cccc(-c2ccc3c(N4CCOC[C@@H]4C)nc(N4CCOC[C@@H]4C)nc3n2)c1 [AZD2014] (1 nM) | 111 | 114 | 92 | 99.4 | 101 | 115 | 106 | 89.7 | 97.5 | 104 | 102 | 98.4 | 108 | 125 | 98 | 95 | 105 | 103 | 101 |
| CN(C)CCOc1ccc(/C(=C(/CCCl)c2ccccc2)c2ccccc2)cc1 [Toremifene] (10 nM) | 109 | 105 | 91.3 | 108 | 103 | 117 | 106 | 97.1 | 101 | 98.2 | 99 | 105 | 96.8 | 130 | 99.2 | 95.1 | 120 | 103 | 98.6 |
| Cc1cc(Nc2cc(CN3CCOCC3)c3nc(C)c(Cc4ccc(Cl)cc4F)n3n2)n[nH]1 [Gandotinib] (1 nM) | 111 | 107 | 109 | 106 | 100 | 110 | 99.7 | 97.4 | 108 | 97.8 | 105 | 94.4 | 98.1 | 93.5 | 97.3 | 104 | 103 | 112 | 100 |
| CO[C@H]1C[C@@H]2CC[C@@H](C)[C@@](O)(O2)C(=O)C(=O)N2CCCC[C@H]2C(=O)O[C@H]([C@H](C)C[C@@H]2CC[C@@H](OP(C)(C)=O)[C@H](OC)C2)CC(=O)[C@H](C)/C=C(\C)[C@@H](O)[C@@H](OC)C(=O)[C@H](C)C[C@H](C)/C=C/C=C/C=C/1C [Ridaforolimus] (0.01 nM) | 105 | 104 | 113 | 103 | 96.8 | 111 | 105 | 103 | 107 | 102 | 101 | 103 | 103 | 109 | 109 | 99.8 | 109 | 102 | 99.6 |
| CNC(=O)c1ccc(N2C(=S)N(c3ccc(C#N)c(C(F)(F)F)c3)C(=O)C2(C)C)cc1F [Enzalutamide] (1 nM) | 102 | 105 | 108 | 98.9 | 103 | 108 | 99.6 | 102 | 97.4 | 98.5 | 107 | 98.8 | 95 | 109 | 100 | 95.6 | 103 | 101 | 103 |
| S=P(N1CC1)(N1CC1)N1CC1 [Thio-TEPA] (50 nM) | 94.2 | 103 | 101 | 103 | 99.1 | 91.5 | 106 | 98.5 | 97 | 95.7 | 100 | 93 | 96.6 | 71.5 | 94.7 | 98.7 | 98 | 95.3 | 101 |
| S=P(N1CC1)(N1CC1)N1CC1 [Thio-TEPA] (5 nM) | 90.4 | 101 | 104 | 98.6 | 106 | 105 | 102 | 78.2 | 93.2 | 96.2 | 94.9 | 95.4 | 102 | 64.7 | 93.4 | 99.2 | 108 | 91.2 | 93.8 |
| COCC[n+]1c2c(n(Cc3cnccn3)c1C)C(=O)c1ccccc1C2=O [YM155] (10 nM) | 85 | 88.1 | 43.3 | 101 | 95.2 | 69.8 | 75.3 | 26.6 | 25.6 | 56.4 | 91.5 | 7.43 | 37.6 | 77.8 | 79.8 | 31.8 | 66.2 | 11.8 | 55.7 |
| CNC(=O)c1cc(Oc2ccc(NC(=O)Nc3ccc(Cl)c(C(F)(F)F)c3)c(F)c2)ccn1 [Regorafenib] (10 nM) | 109 | 113 | 108 | 105 | 101 | 110 | 101 | 104 | 111 | 100 | 106 | 94 | 95.2 | 108 | 102 | 100 | 117 | 97.9 | 96 |
| Oc1ccc2c(c1)CC[C@H](c1ccccc1)[C@@H]2c1ccc(OCCN2CCCC2)cc1 [Lasofoxifene] (1 nM) | 112 | 104 | 97.3 | 105 | 103 | 110 | 107 | 101 | 102 | 100 | 93.2 | 95.1 | 104 | 106 | 96.3 | 96.6 | 112 | 105 | 101 |
| COc1cc2/c(=N/c3ccc(Br)cc3F)nc[nH]c2cc1OCC1CCN(C)CC1 [Vandetanib] (0.1 nM) | 76.8 | 72.8 | 82.4 | 91 | 98.6 | 78 | 85.2 | 80.6 | 89.3 | 88.7 | 105 | 90.8 | 97.3 | 115 | 93.2 | 90.3 | 93.6 | 93.2 | 88.2 |
| O=P1(N(CCCl)CCCl)NCCCO1 (stereo not given) [Cyclophosphamide] (40 nM) | 104 | 102 | 98.2 | 106 | 106 | 91 | 100 | 99.1 | 100 | 105 | 97.9 | 96.8 | 99.9 | 79.3 | 98.4 | 98.7 | 106 | 101 | 95.6 |
| Nc1cc(C(F)(F)F)c(-c2cc(N3CCOCC3)nc(N3CCOCC3)n2)cn1 [Buparlisib] (1 nM) | 95 | 98.8 | 90.2 | 97.7 | 97.3 | 101 | 97.1 | 98.9 | 98.8 | 92.6 | 102 | 103 | 98.7 | 112 | 97.3 | 92.3 | 101 | 96.3 | 97.1 |
| CC(C)C[C@@H](C(=O)N[C@H](C(=O)OC1CCCC1)c1ccccc1)[C@H](O)C(=O)NO [Tosedostat] (10 nM) | 111 | 102 | 114 | 99.5 | 94.4 | 113 | 104 | 96.1 | 95.3 | 97.2 | 88.2 | 92.6 | 94.4 | 125 | 99.8 | 92.2 | 93.9 | 78.5 | 87.9 |
| CCn1c(-c2nonc2N)nc2cnc(Oc3cccc(NC(=O)c4ccc(OCCN5CCOCC5)cc4)c3)cc21 (1 nM) | 98.6 | 102 | 103 | 94.3 | 99.5 | 102 | 96.8 | 104 | 95.1 | 103 | 108 | 41.8 | 102 | 114 | 104 | 101 | 101 | 95.6 | 104 |
| c1ccc2c(CCNc3ccc(Nc4ccncc4)cc3)c[nH]c2c1 [Serdemetan] (10 nM) | 92 | 100 | 115 | 102 | 96.5 | 94.3 | 98.3 | 97.9 | 87.6 | 93.4 | 105 | 91.5 | 97.3 | 105 | 98.7 | 106 | 105 | 95.2 | 99.4 |
